Measurements taken from patent US20150118229A1, “JAK1 SELECTIVE INHIBITOR AND USES THEREOF” (ABBVIE INC., priority 2013, published 2015).
“Also recorded” adds a separate entry of the source.

Assays:
[1] = Metabolic stability in liver microsomes, rat; type: in vitro ADME; settings: read-out: intrinsic clearance in liver microsomes (scaled) (converted)
[2] = Plasma protein binding, monkey; type: in vitro ADME
P-gp = P-gp (Homo sapiens, UniProt P08183); assay: P-gp inhibition; type: in vitro ADME
CYP3A4 [3] = assay: CYP induction (mRNA) in human hepatocytes, CYP3A4; type: in vitro ADME; settings: 1, 3, and 10 μM
Rock2 = Rock2 (Homo sapiens, UniProt O75116); assay: Kinase panel, Rock2; type: biochemical
IFN-γ = assay: Concanavalin A-induced IFN-γ in Lewis rats; type: in vivo; settings: oral, 30 min prior to i.v. Con A
Method: The test compound is formulated in an inert vehicle (for example but not limited to 0.5% hydroxypropylmethyl cellulose (Sigma, cat #H3785)/0.02% Tween 80 (Sigma, cat #4780) in water) at the desired concentration to achieve doses in the range of 0.01-100 mg/kg. Six-week-old male Lewis rats (125 g-150 g) (Charles River Laboratories) are dosed with the compound orally, at time zero (0 min). After about 30 min the rats are injected intravenously (i.v.) with 10 mg/kg Concanavalin A (Con A, AmershamBioscience, cat #17-0450-01) dissolved in PBS (Invitrogen, cat #14190). About 4 h later, the rats are cardiac bled and their plasma is analyzed for levels of IL-2 (ELISA kit: R&D Systems cat #R2000) and IFN-γ (ELISA kit: R&D Systems cat #RIF00).
The rat concanavalin A (Con A) model was selected as the acute screening model because it provides an assessment of oral bioavailability, as well as a rapid measurement of effects on Jak1-dependent mechanisms. Intravenous injection of Con A into Lewis rats results in T cell receptor ligation and activation, leading to IL-2 release and IFN-γ induction by an autocrine mechanism. IL-2 release is Jak-independent, whereas IFN-γ induction is blocked by Jak1 inhibitors.
Plasma levels of IFN-γ and IL-2 are assessed 4 hours later in a terminal bleed.

Photostability = type: physicochemical; settings: preclinical studies
Text: In repeated-dose oral toxicity studies in rats and dogs of 6 and 9 months duration, respectively, no evidence of skin or ocular toxicity has been observed.

in vivo = settings: dog; for AUC(0-inf): AUC0-∞
CYP3A4 [4] = molecular target: CYP3A4 (Homo sapiens, UniProt P08684); assay: Metabolism by recombinant CYP3A4; type: in vitro ADME
Text: In vitro biotransformation of Compound 1 primarily occurred at imidazolpyrrolopyrazinyl ethyl pyrrolidine moiety.

[5] = test system: GMCSF-induced pSTAT5 (Jak2 signaling); assay: Ex vivo stimulation assay GM-CSF pSTAT5, orally dosed human; settings: 24 mg but not 12 mg oral, 1 hour post dose
CYP2C9 = CYP2C9 (Homo sapiens, UniProt P11712); assay: CYP inhibition in human liver microsomes, CYP2C9
[6] = [14C]Compound 1 absorption and excretion in bile duct-cannulated rats; type: in vivo, Sprague-Dawley male rats
[7] = 6-month (26 weeks) GLP chronic oral toxicity study in rats; type: in vivo, rat; settings: for AUC(0-t) / Cmax: po, rat 20 mg/kg/day; for AUC(0-t): read-out: AUC0-24 at NOAEL; for Cmax: read-out: Cmax at NOAEL
Method: The GLP-compliant studies each included 4 weeks of oral dosing followed by a 4-week recovery period in both rats and dogs followed by GLP-compliant chronic toxicity studies in rats (6 months of oral dosing) and dogs (9 months of oral dosing).
The 6-month chronic rat study was conducted at dose levels of 0, 5, 20, and 50 mg/kg/day by daily oral administration (gavage).

[8] = Non-GLP 4-week oral screening toxicity study in dogs; type: in vivo, beagle dogs; settings: dog, 4 weeks
OAT1 = OAT1 (Homo sapiens, UniProt Q4U2R8); assay: Transporter inhibition, OAT1; settings: up to 30 μM
[9] = Human PK, single ascending dose Study M13-401; type: in vivo; settings: for AUC(0-t) / AUC(0-inf): human, in vivo
[10] = both, beagle, po, 0.5 mg/kg/day

Sequence of CYP2C9 (P11712 whole entry): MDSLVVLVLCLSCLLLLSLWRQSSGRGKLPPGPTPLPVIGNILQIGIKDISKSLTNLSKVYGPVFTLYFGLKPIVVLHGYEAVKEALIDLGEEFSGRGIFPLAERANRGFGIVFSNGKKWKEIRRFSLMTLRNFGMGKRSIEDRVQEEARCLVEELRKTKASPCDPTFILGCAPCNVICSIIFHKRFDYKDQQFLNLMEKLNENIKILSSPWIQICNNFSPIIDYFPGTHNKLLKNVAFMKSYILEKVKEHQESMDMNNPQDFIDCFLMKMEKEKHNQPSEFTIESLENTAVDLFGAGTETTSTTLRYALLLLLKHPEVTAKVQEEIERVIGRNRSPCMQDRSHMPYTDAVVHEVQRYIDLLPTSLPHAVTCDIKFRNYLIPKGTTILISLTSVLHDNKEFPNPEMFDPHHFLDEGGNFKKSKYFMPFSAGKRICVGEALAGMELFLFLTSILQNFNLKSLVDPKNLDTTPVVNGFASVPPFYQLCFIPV
Sequence of P-gp (P08183 whole entry): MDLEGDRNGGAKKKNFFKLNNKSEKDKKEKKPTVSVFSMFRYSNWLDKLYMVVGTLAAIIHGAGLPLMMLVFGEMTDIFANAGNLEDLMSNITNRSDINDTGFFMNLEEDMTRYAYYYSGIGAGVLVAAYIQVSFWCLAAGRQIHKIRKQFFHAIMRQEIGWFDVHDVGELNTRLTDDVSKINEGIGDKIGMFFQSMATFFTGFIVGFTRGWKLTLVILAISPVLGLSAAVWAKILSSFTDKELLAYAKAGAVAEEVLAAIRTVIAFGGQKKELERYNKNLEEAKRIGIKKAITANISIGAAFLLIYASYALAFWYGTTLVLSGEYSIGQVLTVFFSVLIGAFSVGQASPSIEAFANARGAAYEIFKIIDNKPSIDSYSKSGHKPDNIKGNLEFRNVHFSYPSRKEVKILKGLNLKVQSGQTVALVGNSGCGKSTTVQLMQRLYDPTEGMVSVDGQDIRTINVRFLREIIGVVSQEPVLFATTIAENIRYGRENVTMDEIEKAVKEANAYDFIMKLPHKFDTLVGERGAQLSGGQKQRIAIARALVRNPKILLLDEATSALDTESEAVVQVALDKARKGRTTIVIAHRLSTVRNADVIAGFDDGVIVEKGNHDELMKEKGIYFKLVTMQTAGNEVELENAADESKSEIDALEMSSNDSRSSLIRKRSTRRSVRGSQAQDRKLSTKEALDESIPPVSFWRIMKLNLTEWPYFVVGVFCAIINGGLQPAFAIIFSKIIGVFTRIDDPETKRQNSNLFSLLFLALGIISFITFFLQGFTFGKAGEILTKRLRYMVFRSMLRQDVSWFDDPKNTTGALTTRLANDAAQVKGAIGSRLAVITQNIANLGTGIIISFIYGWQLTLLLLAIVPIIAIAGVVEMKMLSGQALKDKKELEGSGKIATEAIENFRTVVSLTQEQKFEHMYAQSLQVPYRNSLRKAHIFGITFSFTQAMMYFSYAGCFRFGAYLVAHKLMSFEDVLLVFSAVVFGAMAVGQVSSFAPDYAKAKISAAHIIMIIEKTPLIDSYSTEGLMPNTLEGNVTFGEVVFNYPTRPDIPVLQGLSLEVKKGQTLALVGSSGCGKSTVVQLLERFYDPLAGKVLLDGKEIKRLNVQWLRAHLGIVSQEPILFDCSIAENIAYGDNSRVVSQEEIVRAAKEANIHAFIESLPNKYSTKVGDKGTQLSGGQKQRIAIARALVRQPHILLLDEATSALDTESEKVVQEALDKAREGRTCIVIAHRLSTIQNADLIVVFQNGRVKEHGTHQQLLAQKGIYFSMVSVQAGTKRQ
Sequence of CYP3A4 (Homo sapiens, UniProt P08684) (P08684 whole entry): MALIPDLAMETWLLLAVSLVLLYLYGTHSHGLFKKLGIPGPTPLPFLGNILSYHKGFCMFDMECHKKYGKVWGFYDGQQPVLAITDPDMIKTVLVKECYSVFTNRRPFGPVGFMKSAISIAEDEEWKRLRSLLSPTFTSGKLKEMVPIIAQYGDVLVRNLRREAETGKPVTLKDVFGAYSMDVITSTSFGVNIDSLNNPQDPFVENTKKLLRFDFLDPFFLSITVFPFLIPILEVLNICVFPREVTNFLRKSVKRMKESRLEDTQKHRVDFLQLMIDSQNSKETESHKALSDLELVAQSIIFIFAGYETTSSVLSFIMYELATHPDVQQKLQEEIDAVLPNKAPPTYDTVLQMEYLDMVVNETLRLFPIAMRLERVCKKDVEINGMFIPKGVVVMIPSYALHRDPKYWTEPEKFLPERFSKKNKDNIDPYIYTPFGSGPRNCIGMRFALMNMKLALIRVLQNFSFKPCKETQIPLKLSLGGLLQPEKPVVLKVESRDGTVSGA
Sequence of OAT1 (Q4U2R8 whole entry): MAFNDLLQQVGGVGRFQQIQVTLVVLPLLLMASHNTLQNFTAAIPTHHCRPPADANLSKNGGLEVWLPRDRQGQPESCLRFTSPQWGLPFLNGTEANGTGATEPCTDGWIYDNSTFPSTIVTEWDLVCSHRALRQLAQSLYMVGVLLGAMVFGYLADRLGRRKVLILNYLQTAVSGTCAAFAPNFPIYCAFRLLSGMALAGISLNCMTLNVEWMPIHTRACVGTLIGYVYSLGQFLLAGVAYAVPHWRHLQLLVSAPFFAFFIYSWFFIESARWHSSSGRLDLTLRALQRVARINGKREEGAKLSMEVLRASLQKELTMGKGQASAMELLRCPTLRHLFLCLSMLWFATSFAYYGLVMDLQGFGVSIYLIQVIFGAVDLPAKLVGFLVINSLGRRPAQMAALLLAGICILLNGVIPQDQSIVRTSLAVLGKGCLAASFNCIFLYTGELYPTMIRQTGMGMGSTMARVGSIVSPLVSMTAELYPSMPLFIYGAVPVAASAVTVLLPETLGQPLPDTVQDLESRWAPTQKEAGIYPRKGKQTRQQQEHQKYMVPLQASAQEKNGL
Sequence of Rock2 (O75116 whole entry, species assumed): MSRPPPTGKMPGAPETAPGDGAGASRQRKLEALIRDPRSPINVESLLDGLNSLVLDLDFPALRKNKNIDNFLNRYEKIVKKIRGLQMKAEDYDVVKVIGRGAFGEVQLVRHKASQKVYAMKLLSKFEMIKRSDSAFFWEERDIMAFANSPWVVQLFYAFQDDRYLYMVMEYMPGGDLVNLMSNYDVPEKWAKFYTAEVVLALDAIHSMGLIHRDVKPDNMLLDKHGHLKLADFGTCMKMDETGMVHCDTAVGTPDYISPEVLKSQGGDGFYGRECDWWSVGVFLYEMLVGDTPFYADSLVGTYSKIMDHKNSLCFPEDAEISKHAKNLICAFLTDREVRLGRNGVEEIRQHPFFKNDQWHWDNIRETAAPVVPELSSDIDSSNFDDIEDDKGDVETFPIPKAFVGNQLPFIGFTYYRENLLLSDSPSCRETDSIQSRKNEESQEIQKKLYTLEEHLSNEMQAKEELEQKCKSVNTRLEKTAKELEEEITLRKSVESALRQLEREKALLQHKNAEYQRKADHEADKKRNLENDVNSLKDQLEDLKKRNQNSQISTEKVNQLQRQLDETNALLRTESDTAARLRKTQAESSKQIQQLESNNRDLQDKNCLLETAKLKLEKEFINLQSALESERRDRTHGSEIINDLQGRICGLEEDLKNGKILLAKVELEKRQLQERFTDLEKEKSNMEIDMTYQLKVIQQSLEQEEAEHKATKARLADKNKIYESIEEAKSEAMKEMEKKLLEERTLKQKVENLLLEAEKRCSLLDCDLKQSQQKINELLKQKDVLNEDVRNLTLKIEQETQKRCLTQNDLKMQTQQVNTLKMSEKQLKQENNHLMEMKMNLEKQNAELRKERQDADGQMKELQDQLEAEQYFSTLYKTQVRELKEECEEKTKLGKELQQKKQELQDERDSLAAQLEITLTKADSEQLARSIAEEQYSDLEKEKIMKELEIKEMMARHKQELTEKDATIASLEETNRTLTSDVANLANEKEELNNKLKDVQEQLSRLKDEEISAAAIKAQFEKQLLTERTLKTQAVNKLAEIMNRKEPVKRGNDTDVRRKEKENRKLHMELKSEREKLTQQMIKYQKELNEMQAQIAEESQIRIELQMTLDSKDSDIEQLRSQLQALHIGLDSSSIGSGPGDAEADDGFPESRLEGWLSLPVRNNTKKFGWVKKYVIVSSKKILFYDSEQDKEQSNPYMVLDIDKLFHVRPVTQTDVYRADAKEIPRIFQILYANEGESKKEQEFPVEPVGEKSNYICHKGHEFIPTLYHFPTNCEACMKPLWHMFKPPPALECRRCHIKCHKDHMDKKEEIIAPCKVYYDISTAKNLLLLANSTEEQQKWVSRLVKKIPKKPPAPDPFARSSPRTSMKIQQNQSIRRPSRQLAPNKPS

## CC[C@@H]1CN(C(=O)NCC(F)(F)F)C[C@@H]1c1cnc2cnc3[nH]ccc3n12 [Compound 1, (3S,4R)-3-ethyl-4-(3H-imidazo[1,2-a]pyrrolo[2,3-e]pyrazin-8-yl)-N-(2,2,2-trifluoroethyl)pyrrolidine-1-carboxamide]
[1]
  CLint scaled at 0.5 μM: 84.7 mL/min/kg
[2]
  fraction unbound: 0.61
P-gp
  IC50: 348 µM
CYP3A4 [3]
  mRNA expression of CYP3A4: did not increase
Rock2
  IC50: 0.43 µM
IFN-γ; Rattus norvegicus, read-out: ED50, inhibition of IFN-γ release
  ED50: 0.4 mg/kg
IFN-γ
  ED80, inhibition of IFN-γ release: 5.8 mg/kg
Photostability
  photostability: photoinstability
In vivo; [10]
  AUC: 359 ng·h/mL
  AUC at 28 days: 339 ng·h/mL
In vivo; both, beagle, po, 3 mg/kg/day
  AUC: 2200 ng·h/mL
  AUC at 28 days: 2140 ng·h/mL
  Cmax: 617 ng/mL
In vivo; both, beagle, po, 5 mg/kg/day
  AUC: 4430 ng·h/mL
  AUC at 28 days: 4100 ng·h/mL
  Cmax: 1240 ng/mL
In vivo; iv, 1 mg/kg
  Vd: 2.6 L/kg
  clearance: 11 mL/min/kg
  half-life: 3.1 h
  AUC(0-inf): 1610 ng·h/mL
In vivo; po, 1 mg/kg
  half-life: 2.8 h
  AUC(0-inf): 1240 ng·h/mL
  Cmax: 349 ng/mL
In vivo; po, 5 mg/kg
  AUC(0-inf): 5310 ng·h/mL
Study M13-845
  adverse events severe, serious, or fatal: None
Substudy 2, RA on MTX, 6, 12, 24 mg BID, all reported as not related
  number of adverse events in combined treatment groups: 7
Healthy volunteers, as printed under Substudy 1
  subjects reporting treatment emergent AEs (6 out of 42): 14.3%
CYP3A4 [4]
  percentage of parent remaining: 36.0%
[5]
  inhibition of GMCSF-induced pSTAT5: partial inhibition
CYP2C9; human liver microsomes
  time-dependent inhibition of CYP2C9: No obvious time-dependent inhibition
CYP2C9; up to 30 μM
  inhibition of CYP2C9: did not inhibit; also recorded: not an inhibitor
[6]; intravenous
  mean total recovery of dosed radioactivity: 96.0%
  radioactivity excreted into bile: 49.7 % of dose
  radioactivity excreted into urine: 23.7 % of dose
[6]; oral
  mean total recovery of dosed radioactivity: 96.8%
  parent drug excreted unchanged in urine: 9%
  radioactivity excreted into bile: 52.6 % of dose
  radioactivity excreted into urine: 11.1 % of dose
[6]; single oral dose 3 mg/kg
  dose absorbed (radioactivity in bile and urine): at least 63.7%
[7]; female, in vivo, females
  AUC(0-t): 6840 ng·h/mL
  Cmax: 2240 ng/mL
[7]; in vivo, rat, 6 months (26 weeks) oral gavage
  NOAEL at 6 months: 20 mg/kg/day
[7]; male, in vivo, males
  AUC(0-t): 3830 ng·h/mL
  Cmax: 1110 ng/mL
[7]; rat, 26 weeks, 50 mg/kg/day
  Adverse Findings: 50: Kidneys-tubular
[8]; 5 mg/kg/day
  NOAEL: None
[8]; leading number = dose mg/kg/day
  Adverse Findings: 5: Popliteal lymph
OAT1
  inhibition of OAT1 uptake: No significant inhibition
[9]; Substudy 2, 3 mg single dose
  decrease in AUC in the presence of food: < 1%
[9]; oral, 3 mg
  AUC(0-t): 102 ng·h/mL
[9]; oral, 6 mg
  AUC(0-t): 159 ng·h/mL
[9]; oral, 24 mg
  AUC(0-t): 612 ng·h/mL
[9]; single oral 1 mg, mean ± SD
  AUC(0-inf): 30.1 ± 5.72 ng·h/mL
  AUC(0-t): 29.8 ± 5.78 ng·h/mL
  fe, dose recovered unchanged in urine: 17.7 ± 9.58%
[9]; single oral 3 mg, mean ± SD
  AUC(0-t): 102 ± 27.5 ng·h/mL
  fe, dose recovered unchanged in urine: 15.6 ± 4.44%
[9]; single oral 6 mg, mean ± SD
  AUC(0-t): 159 ± 37.5 ng·h/mL
  fe, dose recovered unchanged in urine: 15.6 ± 3.49%
[9]; single oral 12 mg, mean ± SD
  AUC(0-t): 329 ± 48.9 ng·h/mL
  fe, dose recovered unchanged in urine: 19.9 ± 2.26%
[9]; single oral 24 mg, mean ± SD
  AUC(0-t): 612 ± 78.6 ng·h/mL
  fe, dose recovered unchanged in urine: 18.6 ± 3.08%
[9]; single oral 36 mg, mean ± SD
  AUC(0-t): 909 ± 201 ng·h/mL
  fe, dose recovered unchanged in urine: 20.8 ± 9.25%
[9]; single oral 48 mg, mean ± SD
  AUC(0-inf): 1040 ± 174 ng·h/mL
  AUC(0-t): 1030 ± 174 ng·h/mL
  fe, dose recovered unchanged in urine: 16.4 ± 5.48%
